# Data as given in article PMC9805530 (European journal of medicinal chemistry, 2022).
# Entries after “also recorded” stand apart in the source; their conditions may differ.
# Tests used:
# Sirt6 [1] = molecular target: T1, Sirt6 (Homo sapiens, UniProt Q8N6T7); assay: Sirt6-dependent peptide deacetylation, Fluor de Lys; details: for Activation Fold 100 μM: compound at 100 μM; for Activation Fold 100 μM / Activation Fold 30 μM: mean ± SD, at least two independent experiments; for effect on Sirt6 activity (time course): Fig. 3A; for Activation Fold 30 μM: compound at 30 μM
# BV2 cells = assay: LPS-induced inflammatory gene mRNA expression; details: 30 μM pretreatment 30 minutes, 100 ng/mL LPS 6 hours
# Sirt6 [2] = molecular target: T1, Sirt6; assay type: biochemical; details: 100 μM, 30 °C, 60 minutes
# Sirt1 = molecular target: T2, Sirt1 (Homo sapiens, UniProt Q96EB6); assay: Sirt1 deacetylation Activity Assay Kit; details: time course, Fig. 3
# T2 sequence (Q96EB6 1-747): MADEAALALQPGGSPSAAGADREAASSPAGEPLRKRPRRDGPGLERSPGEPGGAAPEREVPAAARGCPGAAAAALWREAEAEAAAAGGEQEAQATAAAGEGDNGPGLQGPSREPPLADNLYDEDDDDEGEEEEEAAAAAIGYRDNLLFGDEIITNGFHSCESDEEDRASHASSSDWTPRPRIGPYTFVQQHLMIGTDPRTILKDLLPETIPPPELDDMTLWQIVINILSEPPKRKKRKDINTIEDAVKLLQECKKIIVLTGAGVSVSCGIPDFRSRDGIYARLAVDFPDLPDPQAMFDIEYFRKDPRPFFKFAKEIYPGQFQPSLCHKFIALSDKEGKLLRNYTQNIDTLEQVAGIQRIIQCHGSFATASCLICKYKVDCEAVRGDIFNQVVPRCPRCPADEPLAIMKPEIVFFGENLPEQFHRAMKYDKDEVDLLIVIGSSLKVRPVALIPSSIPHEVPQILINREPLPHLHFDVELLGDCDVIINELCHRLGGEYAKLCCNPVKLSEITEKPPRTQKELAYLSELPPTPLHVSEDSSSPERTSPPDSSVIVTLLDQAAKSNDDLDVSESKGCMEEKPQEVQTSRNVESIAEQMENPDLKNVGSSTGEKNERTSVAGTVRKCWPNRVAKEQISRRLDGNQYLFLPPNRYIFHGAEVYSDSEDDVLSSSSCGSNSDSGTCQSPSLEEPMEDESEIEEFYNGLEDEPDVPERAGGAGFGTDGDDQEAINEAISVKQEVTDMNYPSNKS
# Sirt5 = molecular target: T3, Sirt5 (Homo sapiens, UniProt Q9NXA8); assay: Fluorogenic Sirt5 Assay Kit; assay type: biochemical; details: 100 μM compounds, 37 °C 30 min
# T3 sequence (Q9NXA8 37-310): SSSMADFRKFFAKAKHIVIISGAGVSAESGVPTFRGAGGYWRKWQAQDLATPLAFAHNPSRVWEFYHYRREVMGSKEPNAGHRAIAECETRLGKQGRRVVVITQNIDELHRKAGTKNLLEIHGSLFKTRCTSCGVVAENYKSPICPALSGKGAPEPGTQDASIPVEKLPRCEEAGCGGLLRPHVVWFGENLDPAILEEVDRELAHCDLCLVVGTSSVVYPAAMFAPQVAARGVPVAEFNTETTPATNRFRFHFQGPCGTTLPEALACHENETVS
# Sirt2 = molecular target: T4, Sirt2 (Homo sapiens, UniProt Q8IXJ6); assay: Sirt2 deacetylation Activity Assay Kit; details: time course, Fig. 3
# T4 sequence (Q8IXJ6 1-389): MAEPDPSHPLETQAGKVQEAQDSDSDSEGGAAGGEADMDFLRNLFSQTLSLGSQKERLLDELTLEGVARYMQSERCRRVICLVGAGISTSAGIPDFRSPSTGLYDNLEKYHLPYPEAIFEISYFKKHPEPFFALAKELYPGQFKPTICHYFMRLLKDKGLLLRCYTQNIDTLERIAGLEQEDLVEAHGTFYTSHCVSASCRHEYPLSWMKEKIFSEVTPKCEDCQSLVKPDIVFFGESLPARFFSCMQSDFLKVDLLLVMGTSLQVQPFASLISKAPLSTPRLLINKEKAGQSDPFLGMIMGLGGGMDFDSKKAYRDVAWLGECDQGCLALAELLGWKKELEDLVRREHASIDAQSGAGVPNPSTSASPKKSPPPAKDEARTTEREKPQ
# PLC/PRF/5 cells [3] = assay: Acetylated H3K9 to total H3 in cancer cells; assay type: cell-based; details: 30 μM, 24 hours
# PLC/PRF/5 cells [4] = assay: Colony formation assay; assay type: cell-based; details: 30 μM, one week
# H1299 cells [5] = assay: Colony formation assay; assay type: cell-based; details: 30 μM, one week
# R28 cells = assay: MTT cell viability assay; assay type: cell-based; details: 100 μM, 24 hours
# H1299 cells [6] = assay: Acetylated H3K9 to total H3 in cancer cells; assay type: cell-based; details: 30 μM, 24 hours
# T1 sequence (Q8N6T7 whole entry): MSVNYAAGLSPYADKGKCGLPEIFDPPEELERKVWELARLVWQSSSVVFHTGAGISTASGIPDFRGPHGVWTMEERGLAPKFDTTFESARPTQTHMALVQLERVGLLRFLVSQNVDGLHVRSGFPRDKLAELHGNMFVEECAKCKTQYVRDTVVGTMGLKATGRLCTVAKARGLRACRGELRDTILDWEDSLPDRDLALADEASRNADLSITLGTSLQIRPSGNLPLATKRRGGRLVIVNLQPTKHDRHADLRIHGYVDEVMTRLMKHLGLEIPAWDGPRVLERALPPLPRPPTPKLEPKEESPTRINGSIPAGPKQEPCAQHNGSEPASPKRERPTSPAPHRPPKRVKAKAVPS
Activation Fold 100 μM (Sirt6 [1]),acetylation of H3K9 in the nucleosome test (Sirt6 [2]),effect on Sirt1 deacetylation activity (Sirt1),effect on Sirt5 desuccinylation activity (Sirt5),effect on Sirt6 activity (time course) (Sirt6 [1]),effect on Sirt2 deacetylation activity (Sirt2),Compound,ICAM-1 induction (BV2 cells),LPS-induced CXCL10 expression (BV2 cells),LPS-induced expression of IL-1β (BV2 cells),LPS-induced expression of IL-6 (BV2 cells),LPS-induced expression of MCP-1 (BV2 cells),LPS-induced expression of TNFα (BV2 cells),LPS-induced iNOS expression (BV2 cells),further results
~ 2 fold,–,–,–,–,–,"OC1CCN(c2ncccc2C2Nc3ccccc3-n3cccc32)CC1 (stereo not drawn) [Compound 27, 1-(3-(4,5-Dihydropyrrolo[1,2-a]quinoxalin-4-yl)pyridin-2-yl)piperidin-4-ol]",–,–,–,–,–,–,–,–
6.29 ± 0.02 fold,significantly decreased,no significant effects,no significant effects,specifically promoted,no significant effects,"c1ccc2c(c1)NC(c1cccnc1N1CCN(CCn3ccnc3)CC1)c1cccn1-2 (stereo not drawn) [Compound 50, 4-(2-(4-(2-(1H-Imidazol-1-yl)ethyl)piperazin-1-yl)pyridin-3-yl)-4,5-dihydropyrrolo[1,2-a]quinoxaline]",slight inhibition,significantly repressed,strongly inhibited; also recorded: almost reversed,strongly inhibited; also recorded: almost reversed,strongly inhibited; also recorded: almost reversed,strongly inhibited,significantly repressed,Activation Fold 30 μM (Sirt6 [1]): 3.34 ± 0.19 fold
5.38 ± 0.29 fold,no effect,no significant effects,no significant effects,specifically promoted,no significant effects,"c1ccc2c(c1)NC(c1cccnc1N1CCN(CCN3CCCC3)CC1)c1cccn1-2 (stereo not drawn) [Compound 47, 4-(2-(4-(2-(Pyrrolidin-1-yl)ethyl)piperazin-1-yl)pyridin-3-yl)-4,5-dihydropyrrolo[1,2-a]quinoxaline]",slight inhibition,significantly repressed,strongly inhibited; also recorded: almost reversed,strongly inhibited; also recorded: almost reversed,strongly inhibited; also recorded: almost reversed,strongly inhibited,significantly repressed,VCAM-1 induction (BV2 cells): obviously inhibit; Activation Fold 30 μM (Sirt6 [1]): 4.80 ± 0.19 fold
~ 2 fold,–,–,–,–,–,"O=S1(=O)CCN(c2ncccc2C2Nc3ccccc3-n3cccc32)CC1 (stereo not drawn) [Compound 26, 4-(3-(4,5-Dihydropyrrolo[1,2-a]quinoxalin-4-yl)pyridin-2-yl)thiomorpholine 1,1-dioxide]",–,–,–,–,–,–,–,–
~ 2 fold,–,–,–,–,–,"FC1(F)CCN(c2ncccc2C2Nc3ccccc3-n3cccc32)CC1 (stereo not drawn) [Compound 25, 4-(2-(4,4-Difluoropiperidin-1-yl)pyridin-3-yl)-4,5-dihydropyrrolo[1,2-a]quinoxaline]",–,–,–,–,–,–,–,–
–,significantly decreased,no significant effects,no significant effects,specifically promoted,no significant effects,"COCCN1CCN(c2ncccc2C2Nc3ccccc3-n3cccc32)CC1 (stereo not drawn) [Compound 36, 4-(2-(4-(2-Methoxyethyl)piperazin-1-yl)pyridin-3-yl)-4,5-dihydropyrrolo[1,2-a]quinoxaline]",–,–,strongly inhibited,strongly inhibited,strongly inhibited,strongly inhibited,–,Sirt6-dependent deacetylation of H3K9 (acetylated H3K9 to total H3) (PLC/PRF/5 cells [3]): significantly activated Sirt6 to deacetylate H3K9; decrease of acetylated H3K9 when Sirt6 knockdown by siRNA (PLC/PRF/5 cells [3]; Sirt6 siRNA): abolished; inhibition of colony formation (PLC/PRF/5 cells [4]): about half; inhibition of colony formation (H1299 cells [5]): about half; toxicity on R28 cells (R28 cells): no obvious toxicity; Sirt6-dependent deacetylation of H3K9 (acetylated H3K9 to total H3) (H1299 cells [6]): significantly activated Sirt6 to deacetylate H3K9; decrease of acetylated H3K9 when Sirt6 knockdown by siRNA (H1299 cells [6]; Sirt6 siRNA): abolished
–,significantly decreased,no significant effects,no significant effects,specifically promoted,no significant effects,"OC1CN(CCN2CCN(c3ncccc3C3Nc4ccccc4-n4cccc43)CC2)C1 (stereo not drawn) [Compound 46, 1-(2-(4-(3-(4,5-Dihydropyrrolo[1,2-a]quinoxalin-4-yl)pyridin-2-yl)piperazin-1-yl)ethyl)azetidin-3-ol]",–,significantly repressed,strongly inhibited; also recorded: almost reversed,strongly inhibited; also recorded: almost reversed,strongly inhibited; also recorded: almost reversed,strongly inhibited,significantly repressed,VCAM-1 induction (BV2 cells): obviously inhibit
–,significantly decreased,no significant effects,no significant effects,specifically promoted,no significant effects,"OCCN1CCN(c2ncccc2C2Nc3ccccc3-n3cccc32)CC1 (stereo not drawn) [Compound 35, 2-(4-(3-(4,5-Dihydropyrrolo[1,2-a]quinoxalin-4-yl)pyridin-2-yl)piperazin-1-yl)ethan-1-ol]",slight inhibition,–,strongly inhibited,strongly inhibited,strongly inhibited,strongly inhibited,–,Sirt6-dependent deacetylation of H3K9 (acetylated H3K9 to total H3) (PLC/PRF/5 cells [3]): no obvious influence; inhibition of colony formation (PLC/PRF/5 cells [4]): only a slight inhibitory effect; inhibition of colony formation (H1299 cells [5]): only a slight inhibitory effect; toxicity on R28 cells (R28 cells): no obvious toxicity; Sirt6-dependent deacetylation of H3K9 (acetylated H3K9 to total H3) (H1299 cells [6]): no obvious influence
